Consider 6 compounds from ChEMBL document CHEMBL3826909, “Quinoxaline-based inhibitors of Ebola and Marburg VP40 egress” (Bioorg Med Chem Lett, 2016).

Structures are written as SMILES. The source made the active and inactive calls. The rule behind the calls is not given here.

Data set [1] in a line: Cytotoxicity against human HEK293T cells assessed as cell viability at 10 uM after 24 hrs by MTT assay relative to control. The class given is cell-based, HEK-293T. The following applies: read-out: Activity. Background: Tetrazolium assays rely on reduction of a dye to a coloured formazan, in cell work by metabolically active cells.
A further data set concerns the target Cytochrome P450 3A4 (Homo sapiens, UniProt P08684). Briefly: Inhibition of CYP3A4 (unknown origin) using midazolam as substrate. The class given is ADME.
Data set [2] relates to HEK-293T. Briefly: Inhibition of Ebola virus VP40 PPxY L-domain motif expressed in HEK293T cells assessed as reduction in VLP budding at 100 nM after 24 hrs by Western blot analysis relative to control. The class given is cell-based. Conditions: Ebolavirus. For orientation: In western blotting, separated proteins are transferred to a membrane and probed.
Data set [3] concerns HEK-293T. Put plainly: Inhibition of Ebola virus VP40 PPxY L-domain motif expressed in HEK293T cells assessed as reduction in VLP budding at 30 nM after 24 hrs by Western blot analysis relative to control. Conditions: Ebolavirus. It is filed as cell-based.
The nature of data set [4]: Cytotoxicity against African green monkey Vero E6 cells assessed as cell viability at 10 uM after 24 hrs by MTT assay relative to control. The class given is cell-based. Conditions: chlorocebus sabaeus, read-out: Activity.
Data set [5] relates to Liver microsome. Briefly: Intrinsic clearance in human liver microsomes assessed per mg of protein. The class given is ADME. A general note: Liver microsomes are a subcellular fraction often used to study metabolism.
The nature of data set [6]: Effect on cellular protein levels in human HEK293T cells infected with recombinant Vesicular stomatitis virus-M40 expressing Ebola virus VP40 PPxY L-domain motif at 30 to 100 nM after 8 hrs by Western blot analysis relative to control. The class given is ADME, cell-based. The following applies: hek-293t, 0.1 µM.
Data set [7] can be described thus: Cytotoxicity against African green monkey Vero E6 cells assessed as cell viability at 0.1 uM after 24 hrs by MTT assay relative to control. It is filed as cell-based. Conditions: chlorocebus sabaeus, read-out: Activity.
Data set [8] can be described thus: Cytotoxicity against human HEK293T cells assessed as cell viability at 1 uM after 24 hrs by MTT assay relative to control. The class given is cell-based, HEK-293T. The following applies: read-out: Activity.
Data set [9] in a line: Half life in mouse liver microsomes. The class given is ADME.
The target of data set [10] is T1, Matrix protein VP40 (Lake Victoria marburgvirus (strain Ravn-87) (MARV) (Marburg virus (strainKenya/Ravn/1987))) (UniProt Q1PDC8).
T1 sequence (whole entry): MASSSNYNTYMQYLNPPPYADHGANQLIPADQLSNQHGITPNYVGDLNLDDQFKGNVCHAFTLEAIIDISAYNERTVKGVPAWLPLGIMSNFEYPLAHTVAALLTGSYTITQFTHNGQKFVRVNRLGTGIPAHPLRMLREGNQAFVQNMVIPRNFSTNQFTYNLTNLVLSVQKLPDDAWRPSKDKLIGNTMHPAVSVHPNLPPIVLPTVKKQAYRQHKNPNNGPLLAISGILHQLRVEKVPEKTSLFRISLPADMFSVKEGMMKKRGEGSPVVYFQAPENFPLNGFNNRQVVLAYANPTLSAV
Put plainly: Inhibition of Marburg virus VP40 PPxY L-domain motif expressed in HEK293T cells assessed as reduction in VLP budding at 0.03 uM relative to control. Conditions: HEK-293T. The class given is cell-based.

Data set [11] addresses T1, Matrix protein VP40 (Lake Victoria marburgvirus (strain Ravn-87) (MARV) (Marburg virus (strainKenya/Ravn/1987))). Briefly: Inhibition of Marburg virus VP40 PPxY L-domain motif expressed in HEK293T cells assessed as reduction in VLP budding at 30 nM after 24 hrs by Western blot analysis relative to control. It is filed as cell-based. The following applies: HEK-293T.
The nature of data set [12]: Cytotoxicity against African green monkey Vero E6 cells assessed as cell viability at 0.01 uM after 24 hrs by MTT assay relative to control. It is filed as cell-based. The following applies: chlorocebus sabaeus, read-out: Activity.
The test system of data set [13] is Liver microsome. Put plainly: Half life in human liver microsomes. The class given is ADME.
A short description of data set [14]: Cytotoxicity against African green monkey Vero E6 cells assessed as cell viability at 1 uM after 24 hrs by MTT assay relative to control. The class given is cell-based. Conditions: chlorocebus sabaeus, read-out: Activity.
In data set [15] the target is T1, Matrix protein VP40 (Lake Victoria marburgvirus (strain Ravn-87) (MARV) (Marburg virus (strainKenya/Ravn/1987))). Put plainly: Inhibition of Marburg virus VP40 PPxY L-domain motif expressed in HEK293T cells assessed as reduction in VLP budding at 0.1 uM relative to control. The class given is cell-based. Conditions: HEK-293T.
Data set [16] in a line: Cytotoxicity against human HEK293T cells assessed as cell viability at 0.01 uM after 24 hrs by MTT assay relative to control. Conditions: read-out: Activity. It is filed as cell-based, HEK-293T.
Data set [17] relates to Vesicular stomatitis virus. Put plainly: Effect on viral protein levels in recombinant Vesicular stomatitis virus-M40 expressing Ebola virus VP40 PPxY L-domain motif infected in HEK293T cells at 30 to 100 nM after 8 hrs by Western blot analysis relative to control. The class given is ADME, organism-based. Conditions: hek-293t, 0.1 µM.
Data set [18] has as its target T1, Matrix protein VP40 (Lake Victoria marburgvirus (strain Ravn-87) (MARV) (Marburg virus (strainKenya/Ravn/1987))). Put plainly: Inhibition of Marburg virus VP40 PPxY L-domain motif expressed in HEK293T cells assessed as reduction in VLP budding at 100 nM after 24 hrs by Western blot analysis. The class given is cell-based. The following applies: HEK-293T.
The nature of data set [19]: Cytotoxicity against human HEK293T cells assessed as cell viability at 0.1 uM after 24 hrs by MTT assay relative to control. The following applies: read-out: Activity. It is filed as cell-based, HEK-293T.
Data set [20] concerns the target T1, Matrix protein VP40 (Lake Victoria marburgvirus (strain Ravn-87) (MARV) (Marburg virus (strainKenya/Ravn/1987))). Briefly: Inhibition of Marburg virus VP40 PPxY L-domain motif-Nedd4 interaction in HEK293T cells coexpressing NYFP-Nedd4 and CYFP-mVP40 at 0.1 uM by inverted confocal microscopy based bimolecular complementation assay. It is filed as cell-based. Conditions: HEK-293T.

For data set [21] the target is unchanged. Put plainly: Inhibition of Marburg virus VP40 PPxY L-domain motif expressed in HEK293T cells assessed as reduction in VLP budding at 25 uM relative to control. It is filed as cell-based. The following applies: HEK-293T.
The target is the same in data set [22]. Put plainly: Inhibition of Marburg virus VP40 PPxY L-domain motif expressed in HEK293T cells assessed as reduction in VLP budding at 1 uM relative to control. The class given is cell-based. The following applies: HEK-293T.
Data set [23] can be described thus: Intrinsic clearance in mouse liver microsomes assessed per mg of protein. The class given is ADME.
The target in data set [24] is T1, Matrix protein VP40 (Lake Victoria marburgvirus (strain Ravn-87) (MARV) (Marburg virus (strainKenya/Ravn/1987))). Put plainly: Inhibition of Marburg virus VP40 PPxY L-domain motif expressed in HEK293T cells assessed as reduction in VLP budding at 0.3 uM relative to control. It is filed as cell-based. Conditions: HEK-293T.
Data set [25] shares this target. Briefly: Inhibition of Marburg virus VP40 PPxY L-domain motif expressed in HEK293T cells assessed as reduction in VLP budding at 10 uM relative to control. The class given is cell-based. The following applies: HEK-293T.
Data set [26] has the same target. Briefly: Inhibition of Marburg virus VP40 PPxY L-domain motif expressed in HEK293T cells assessed as reduction in VLP budding at 1 uM after 24 hrs by Western blot analysis relative to control. It is filed as cell-based. The following applies: HEK-293T.

Cytochrome P450 3A4, sequence (P08684 whole entry): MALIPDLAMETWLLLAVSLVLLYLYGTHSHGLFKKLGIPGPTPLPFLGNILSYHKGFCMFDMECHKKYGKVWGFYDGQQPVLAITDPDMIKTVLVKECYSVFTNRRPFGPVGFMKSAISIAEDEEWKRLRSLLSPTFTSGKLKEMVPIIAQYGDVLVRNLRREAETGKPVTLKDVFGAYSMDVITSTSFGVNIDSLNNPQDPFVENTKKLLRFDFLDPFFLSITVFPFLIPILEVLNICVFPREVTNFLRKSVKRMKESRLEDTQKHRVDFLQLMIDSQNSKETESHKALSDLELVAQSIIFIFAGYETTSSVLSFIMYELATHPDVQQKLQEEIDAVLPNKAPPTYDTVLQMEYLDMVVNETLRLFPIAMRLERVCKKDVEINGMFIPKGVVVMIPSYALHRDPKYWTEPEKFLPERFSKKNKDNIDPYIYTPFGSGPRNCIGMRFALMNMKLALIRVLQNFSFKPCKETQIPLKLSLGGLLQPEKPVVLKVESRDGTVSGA

Consider `Cc1nc2ccccc2nc1SCC(=O)NC(=O)Nc1ccccc1Cl`, for which the viability at 24 h, 10 µM in [1] stood at 65.4%; in data set [4], 80.9%. Further, the IC50 against Cytochrome P450 3A4 was > 33 µM. For the same compound, the inhibition entry (in the data set with HEK-293T [2]; in the data set with HEK-293T [3]; in data set [11]; in data set [18]; in [20]) was “Active” throughout. Moreover, in the data set with Liver microsome [5], the Intrinsic clearance is 0.72 mL/min. For the same compound, the Activity result in data set [6] and in data set [17] was “Non-toxic” throughout. Moreover, the viability at 24 h, 0.1 µM in data set [7] came out at 101%; in data set [19], 69.3%. Further, the viability at 24 h, 1 µM in data set [8] is 63.9%; in data set [14] it was 79.1%. The t1/2 in data set [9] was 2 min; with Liver microsome [13], 76.1 min. Moreover, the values for the inhibition in [10] and in data set [15] were 93% and 99%, respectively. Besides, the viability at 24 h, 0.01 µM was found to be 101% in data set [12] and 96.9% in data set [16].
With `CCNC(=O)NC(=O)CSc1nc2ccccc2nc1C`, the inhibition in data set [21] came to 60%. The inhibition entry in data set [22] and in data set [15] was “inactive” in each case.
Turning to `Cc1ccc(NC(=O)NC(=O)CSc2nc3ccccc3nc2C)cc1`, the viability at 24 h, 10 µM in [1] is 52.8%; in [4], 69.8%. On Cytochrome P450 3A4, the concentration for half-maximal inhibition (IC50) was > 33 µM. The compound further gave an Intrinsic clearance in the data set on Liver microsome [5] of 0.95 mL/min. The values for the viability at 24 h, 0.1 µM in [7] and in data set [19] were 93.9% and 81.9%, respectively. In addition, the viability at 24 h, 1 µM was 61.8% in [8] and 78.5% in data set [14]. For the same compound, the t1/2 is on record as < 1.4 min in data set [9] and 57.7 min in the data set with Liver microsome [13]. Also, the CLH in data set [23] was > 50 mL/min. In addition, the inhibition in data set [10] is 93%; in data set [22], 100%; in [15], 100%; in [18], > 90%; in data set [24], 100%. Further, the fold change (FC) in [11] stood at 15. Besides, the viability at 24 h, 0.01 µM in data set [12] worked out at 98.4%; in data set [16] it was 98.3%.
In the case of `Cc1nc2ccccc2nc1SCC(=O)NC(=O)NC1CC1`, the inhibition in data set [25] came to 60%. Further, the inhibition result in [22] and in [15] was “inactive” in each case.
For the compound `Cc1nc2ccccc2nc1SCC(=O)NC(=O)Nc1ccccc1`, in data set [26], the fold change (FC) was 100. In the data set on Liver microsome [5], this compound yielded an Intrinsic clearance of 1.66 mL/min. Moreover, the inhibition in data set [22] turned out to be 88%. In addition, in the data set on Liver microsome [13], the t1/2 stood at 43.9 min.
`Cc1nc2ccccc2nc1SCC(=O)NC(=O)Nc1cccc(F)c1C`: the results for the viability at 24 h, 10 µM in [1] and in data set [4] were 63.5% and 84%, respectively. Further, the IC50 against Cytochrome P450 3A4 was > 33 µM. In the data set with Liver microsome [5], this compound gave an Intrinsic clearance of 0.54 mL/min. The Activity entry in data set [6] and in data set [17] was “Non-toxic” in each case. Besides, the viability at 24 h, 0.1 µM in data set [7] turned out to be 92.6%; in data set [19], 70.4%. Moreover, the viability at 24 h, 1 µM in data set [8] turned out to be 60.1%; in data set [14], 78.7%. Besides, the t1/2 in [9] is on record as 3.5 min; in the data set on Liver microsome [13], > 90 min. The values for the inhibition in [10] and in data set [15] were 86% and 100%, respectively. In addition, the figures for the viability at 24 h, 0.01 µM in [12] and in data set [16] were 102% and 95.1%, respectively. In addition, in data set [20], the inhibition entry was “Active”.

The term IC50 denotes the concentration that gives 50% inhibition. Usually inhibition stands for the drop in the measured response relative to a control, in per cent.
